US20220184093A1, “ANTI-VIRAL ACTIVITY OF VPS34 INHIBITORS” (priority 2020, published 2022)

Columns and labels:
in vitro [1] = conditions: African green monkey
in vitro [2] = conditions: human
SARS-CoV-2 = test: microbe, parasite or virus in culture; assay type: cell-based; conditions: Severe acute respiratory syndrome coronavirus 2, A549, 48 h; read-out: IC50 for inhibition of SARS CoV-2 mediated cell killing
[3] = tested on: coronavirus USA_WA1/2020 SARS CoV-2; test: SARS CoV-2 CPE assay for antiviral activity (Vero E6 host cells, Cell Titer-Glo); assay type: cell-based; conditions: Vero C1008, 10-point dose response, high concentration 15 μM, 72 hours, read-out: IC50 for inhibition of SARS CoV-2 mediated cell killing

Row | SMILES | CC50 (in vitro [1]) | CC50 (in vitro [2]) | IC50 (SARS-CoV-2) | IC50 [3]
1 | C[C@@H]1COCCN1c1cc(N2CCN(S(=O)(=O)N3CCCC3)CC2C(F)(F)F)[nH]c(=O)c1 (stereo partly shown) [Compound 1] | 29 µM | 24 µM | 0.16 µM | 0.9 µM
2 | C[C@@H]1COCCN1c1cc(N2CCN(S(=O)(=O)c3cncc(F)c3)CC2C(F)(F)F)[nH]c(=O)c1 (stereo partly shown) [Compound 2] | > 10 µM | > 10 µM | 0.12 µM | 0.409 µM
3 | C[C@@H]1COCCN1c1cc(N2CCN(S(=O)(=O)Cc3ccc(F)cc3)CC2C(F)(F)F)[nH]c(=O)c1 (stereo partly shown) [Compound 3] | > 10 µM | 5160 µM | 0.039 µM | 0.224 µM
4 | C[C@@H]1COCCN1c1cc(N2CCN(S(=O)(=O)N(C)C)CC2C(F)(F)F)[nH]c(=O)c1 (stereo partly shown) [Compound 4] | > 10 µM | > 10 µM | 0.369 µM | 1.12 µM
